# Results from patent US20250388565A1, “ESTROGEN RECEPTOR ALPHA DEGRADERS AND METHODS OF USE THEREOF” (Relay Therapeutics, Inc., priority 2022, published 2025).
# Target: T1, ERα protein (HiBiT-tagged) in ESR1_HiBiT KI MCF7 cells (Homo sapiens, UniProt P03372)
# T1 sequence (P03372 1-595): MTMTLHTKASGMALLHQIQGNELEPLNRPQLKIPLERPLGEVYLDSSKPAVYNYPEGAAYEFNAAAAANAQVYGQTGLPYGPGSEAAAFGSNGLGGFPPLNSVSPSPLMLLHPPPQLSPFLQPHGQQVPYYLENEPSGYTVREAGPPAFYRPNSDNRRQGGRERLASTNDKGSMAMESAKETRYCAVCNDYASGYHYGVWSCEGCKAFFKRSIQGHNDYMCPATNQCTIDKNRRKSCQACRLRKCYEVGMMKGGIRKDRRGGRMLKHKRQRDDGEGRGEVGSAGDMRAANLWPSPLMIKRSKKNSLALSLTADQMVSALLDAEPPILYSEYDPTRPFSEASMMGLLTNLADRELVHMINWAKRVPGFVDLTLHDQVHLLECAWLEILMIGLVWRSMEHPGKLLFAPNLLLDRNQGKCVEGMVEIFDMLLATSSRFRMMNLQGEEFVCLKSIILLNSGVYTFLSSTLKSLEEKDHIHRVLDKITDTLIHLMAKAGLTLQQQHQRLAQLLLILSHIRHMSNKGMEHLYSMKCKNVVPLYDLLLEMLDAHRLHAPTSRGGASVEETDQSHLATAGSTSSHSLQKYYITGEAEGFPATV
# Assay: Nano Glo HiBiT Lytic Degradation Assay
# Format: cell-based
# Conditions: 6 hours with compound, 14-point dose response 1:3, bell-shape curve fit, half-maximal effect of first Hill model, read-out: MCF7 ESR1 HiBiT - (DC50)
# Summary of the method: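 Lytic Nano-Glo HiBiT luminescence quantified ERα remaining after a 6 h, 37° C compound exposure of MCF7 cells carrying endogenous HiBiT-tagged ESR1. Dosing used 14 threefold dilutions from a 10 mM DMSO stock (0.1% DMSO final), run in duplicate. Signals were corrected for cell-free background and expressed relative to DMSO, and DC50 came from a bell-shaped curve fit (first Hill model half-maximum).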
row,SMILES,DC50
1,"O=C1CC[C@H](N2Cc3cc(N4CCN(CC5CCN(c6ccc([C@H]7c8ccc(O)cc8CC[C@H]7C7CCCCC7)cc6)CC5)CC4)ccc3C2=O)C(=O)N1 [Compound I-5, (3S)-3-[5-[4-[[1-[4-[(1S,2S)-2-cyclohexyl-6-hydroxy-tetralin-1-yl]phenyl]-4-piperidyl]methyl]piperazin-1-yl]-1-oxo-isoindolin-2-yl]piperidine-2,6-dione]",≥ 10000 nM
2,"O=C1CC[C@H](N2Cc3cc(N4CCN(CC5CCN(c6ccc(C7=C(c8ccccc8)CCc8cc(C(=O)O)ccc87)cc6)CC5)CC4)ccc3C2=O)C(=O)N1 [Compound I-7, (S)-5-(4-(4-((4-(2-(2,6-dioxopiperidin-3-yl)-1-oxoisoindolin-S-yl)piperazin-1-yl)methyl)piperidin-1-yl)phenyl)-6-phenyl-7,8-dihydronaphthalene-2-carboxylic acid]",≥ 10000 nM
3,"O=C1CCC(c2ccc(N3CCN(CC4CCN(c5ccc([C@H]6c7ccc(O)cc7CC[C@H]6c6ccccc6)cc5)CC4)CC3)cc2)C(=O)N1 (stereo partly drawn) [Compound I-11, 3-[4-[4-[[1-[4-[(1S,2R)-6-hydroxy-2-phenyl-tetralin-1-yl]phenyl]-4-piperidyl]methyl]piperazin-1-yl]phenyl]piperidine-2,6-dione]",≥ 10000 nM
4,Cn1ccc([C@@H]2CCc3cc(O)ccc3[C@@H]2c2ccc(N3CCC(CN4CCN(c5ccc6c(c5)CN([C@H]5CCC(=O)NC5=O)C6=O)CC4)CC3)cc2)n1 [Compound I-31],≥ 10000 nM
5,"O=C1CC[C@H](N2Cc3cc(N4CCN(CC5CCN(c6ccc([C@H]7c8ccc(O)cc8CC[C@H]7C7CCOCC7)cc6)CC5)CC4)ccc3C2=O)C(=O)N1 [Compound I-33, (3S)-3-[5-[4-[[1-[4-[(1S,2S)-6-hydroxy-2-tetrahydropyran-4-yl-tetralin-1-yl]phenyl]-4-piperidyl]methyl]piperazin-1-yl]-1-oxo-isoindolin-2-yl]piperidine-2,6-dione]",173 nM
6,"O=C1CCC(c2ccc(N3CCN(CC4CCN(c5ccc([C@@H]6c7ccc(O)cc7CC[C@@H]6c6ccccc6)cc5)CC4)CC3)cc2)C(=O)N1 (stereo partly drawn) [Compound I-39, 3-[4-[4-[[1-[4-[(1R,2S)-6-hydroxy-2-phenyl-tetralin-1-yl]phenyl]-4-piperidyl]methyl]piperazin-1-yl]phenyl]piperidine-2,6-dione]",469 nM
7,"O=C1CC[C@H](N2Cc3cc(N4CCN(CC5CCN(c6ccc([C@@H]7c8ccc(C(F)(F)F)cc8CC[C@@H]7c7ccccc7)cc6)CC5)CC4)ccc3C2=O)C(=O)N1 [Compound I-46, (S)-3-(1-oxo-5-(4-((1-(4-((1R,2S)-2-phenyl-6-(trifluoromethyl)-1,2,3,4-tetrahydronaphthalen-1-yl)phenyl)piperidin-4-yl)methyl)piperazin-1-yl)isoindolin-2-yl)piperidine-2,6-dione]",≥ 10000 nM
8,"O=C1CC[C@H](N2Cc3cc(N4CCN(CC5CCN(c6ccc([C@@H]7c8ccccc8CC[C@@H]7c7ccccc7)cc6)CC5)CC4)ccc3C2=O)C(=O)N1 [Compound I-47, (S)-3-(1-oxo-5-(4-((1-(4-((1R,2S)-2-phenyl-1,2,3,4-tetrahydronaphthalen-1-yl)phenyl)piperidin-4-yl)methyl)piperazin-1-yl)isoindolin-2-yl)piperidine-2,6-dione]",79 nM
9,"N#Cc1ccc2c(c1)CC[C@H](c1ccccc1)[C@@H]2c1ccc(N2CCC(CN3CCN(c4ccc5c(c4)CN([C@H]4CCC(=O)NC4=O)C5=O)CC3)CC2)cc1 [Compound I-49, (5R,6S)-5-(4-(4-((4-(2-((S)-2,6-dioxopiperidin-3-yl)-1-oxoisoindolin-5-yl)piperazin-1-yl)methyl)piperidin-1-yl)phenyl)-6-phenyl-5,6,7,8-tetrahydronaphthalene-2-carbonitrile]",≥ 10000 nM
10,"Cc1ccc2c(c1)CC[C@H](c1ccccc1)[C@@H]2c1ccc(N2CCC(CN3CCN(c4ccc5c(c4)CN([C@H]4CCC(=O)NC4=O)C5=O)CC3)CC2)cc1 [Compound I-50, (S)-3-(5-(4-((1-(4-((1R,2S)-6-methyl-2-phenyl-1,2,3,4-tetrahydronaphthalen-1-yl)phenyl)piperidin-4-yl)methyl)piperazin-1-yl)-1-oxoisoindolin-2-yl)piperidine-2,6-dione]",≥ 10000 nM

# The next compounds have a lower DC50 than those just listed; values first:
row,DC50,SMILES
1,59.4 nM,"O=C1CC[C@H](N2Cc3cc(N4CCN(CC5CCN(c6ccc([C@H]7c8ccc(O)cc8CO[C@H]7c7ccccc7)cc6)CC5)CC4)ccc3C2=O)C(=O)N1 [Compound I-4, (S)-3-(5-(4-((1-(4-((3R,4S)-7-hydroxy-3-phenylisochroman-4-yl)phenyl)piperidin-4-yl)methyl)piperazin-1-yl)-1-oxoisoindolin-2-yl)piperidine-2,6-dione]"
2,2.24 nM,"O=C1CC[C@H](N2Cc3cc(N4CCN(CC5CCN(c6ccc([C@@H]7c8ccc(O)cc8CC[C@@H]7C7CCCCC7)cc6)CC5)CC4)ccc3C2=O)C(=O)N1 [Compound I-6, (3S)-3-[5-[4-[[1-[4-[(1R,2R)-2-cyclohexyl-6-hydroxy-tetralin-1-yl]phenyl]-4-piperidyl]methyl]piperazin-1-yl]-1-oxo-isoindolin-2-yl]piperidine-2,6-dione]"
3,11 nM,"O=C1CC[C@H](N2Cc3cc(N4CCN(CC5CCN(c6ccc(C7c8ccc(O)cc8CCN7C7CCCCC7)cc6)CC5)CC4)ccc3C2=O)C(=O)N1 (stereo partly drawn) [Compound I-9, (3S)-3-(5-(4-((1-(4-(2-cyclohexyl-6-hydroxy-1,2,3,4-tetrahydroisoquinolin-1-yl)phenyl)piperidin-4-yl)methyl)piperazin-1-yl)-1-oxoisoindolin-2-yl)piperidine-2,6-dione]"
4,16 nM,"O=C1CC[C@H](N2Cc3cc(N4CCN(CC5CCN(c6cc(F)c(C7=C(c8ccccc8)CCc8cc(O)ccc87)c(F)c6)CC5)CC4)ccc3C2=O)C(=O)N1 [Compound I-10, (S)-3-(5-(4-((1-(3,5-difluoro-4-(6-hydroxy-2-phenyl-3,4-dihydronaphthalen-1-yl)phenyl)piperidin-4-yl)methyl)piperazin-1-yl)-1-oxoisoindolin-2-yl)piperidine-2,6-dione]"
5,13 nM,O=C1CC[C@H](N2Cc3cc(N4CCN(CC5CCN(c6ccc([C@H]7c8ccc(O)cc8C(F)(F)C[C@H]7c7ccccc7)cc6)CC5)CC4)ccc3C2=O)C(=O)N1 [Compound I-13]
6,2 nM,Cn1cc([C@H]2CCc3cc(O)ccc3[C@H]2c2ccc(N3CCC(CN4CCN(c5ccc6c(c5)CN([C@H]5CCC(=O)NC5=O)C6=O)CC4)CC3)cc2)cn1 [Compound I-30]
7,0.45 nM,"O=C1CC[C@H](N2Cc3cc(N4CCN(CC5CCN(c6ccc([C@@H]7c8ccc(O)cc8CC[C@@H]7C7CCOCC7)cc6)CC5)CC4)ccc3C2=O)C(=O)N1 [Compound I-32, (3S)-3-[5-[4-[[1-[4-[(1R,2R)-6-hydroxy-2-tetrahydropyran-4-yl-tetralin-1-yl]phenyl]-4-piperidyl]methyl]piperazin-1-yl]-1-oxo-isoindolin-2-yl]piperidine-2,6-dione]"
8,0.49 nM,"O=C1CC[C@H](N2Cc3cc(N4CCN(CC5CCN(c6ccc([C@@H]7c8ccc(O)cc8CO[C@@H]7C7CCCCC7)cc6)CC5)CC4)ccc3C2=O)C(=O)N1 [Compound I-34, (S)-3-(5-(4-((1-(4-((3R,4R)-3-cyclohexyl-7-hydroxyisochroman-4-yl)phenyl)piperidin-4-yl)methyl)piperazin-1-yl)-1-oxoisoindolin-2-yl)piperidine-2,6-dione]"
9,0.3 nM,"O=C1CC[C@H](N2Cc3cc(N4CCN(CC5CCN(c6ccc([C@@H]7c8ccc(O)cc8CO[C@@H]7c7ccc(F)cc7)cc6)CC5)CC4)ccc3C2=O)C(=O)N1 [Compound I-35, (S)-3-(5-(4-((1-(4-((3S,4R)-3-(4-fluorophenyl)-7-hydroxyisochroman-4-yl)phenyl)piperidin-4-yl)methyl)piperazin-1-yl)-1-oxoisoindolin-2-yl)piperidine-2,6-dione]"
10,3 nM,"O=C1CC[C@H](N2Cc3cc(N4CCN(CC5CCN(c6ccc([C@@H]7c8ccc(B(O)O)cc8CC[C@@H]7c7ccccc7)cc6)CC5)CC4)ccc3C2=O)C(=O)N1 [Compound I-45, ((5R,6S)-5-(4-(4-((4-(2-((S)-2,6-dioxopiperidin-3-yl)-1-oxoisoindolin-5-yl)piperazin-1-yl)methyl)piperidin-1-yl)phenyl)-6-phenyl-5,6,7,8-tetrahydronaphthalen-2-yl)boronic acid]"
11,0.45 nM,"O=C1CC[C@H](N2Cc3cc(N4CCN(CC5CCN(c6ccc([C@@H]7c8ccc(O)cc8C(F)(F)C[C@@H]7c7ccccc7)cc6)CC5)CC4)ccc3C2=O)C(=O)N1 [Compound I-51, (S)-3-(5-(4-((1-(4-((1R,2S)-4,4-difluoro-6-hydroxy-2-phenyl-1,2,3,4-tetrahydronaphthalen-1-yl)phenyl)piperidin-4-yl)methyl)piperazin-1-yl)-1-oxoisoindolin-2-yl)piperidine-2,6-dione]"
